Target: JAK2 (Homo sapiens (Human), UniProt O60674)
Experiment: JAK2 Tyrosine Kinase Assay
Format: biochemical
Settings: ATP 30 μM; JAK2 1 nM; 60 min at room temperature
Method: JAK2 Tyrosine Kinase Assay
The assays were performed in V-bottom 384-well plates. […] The reaction was initiated by the combination of JAK2 with substrates and test compounds. The reaction was incubated at room temperature for 60 min. and terminated by adding 45 μl of 35 mM EDTA to each sample. The reaction mixture was analyzed on the Caliper LABCHIP® 3000 by electrophoretic separation of the fluorescent substrate and phosphorylated product. […] Compounds were dissolved at 10 mM in dimethylsulfoxide (DMSO) and evaluated at eleven concentrations, each in duplicate. IC50 values were derived by non-linear regression analysis

JAK2, sequence (O60674 whole entry): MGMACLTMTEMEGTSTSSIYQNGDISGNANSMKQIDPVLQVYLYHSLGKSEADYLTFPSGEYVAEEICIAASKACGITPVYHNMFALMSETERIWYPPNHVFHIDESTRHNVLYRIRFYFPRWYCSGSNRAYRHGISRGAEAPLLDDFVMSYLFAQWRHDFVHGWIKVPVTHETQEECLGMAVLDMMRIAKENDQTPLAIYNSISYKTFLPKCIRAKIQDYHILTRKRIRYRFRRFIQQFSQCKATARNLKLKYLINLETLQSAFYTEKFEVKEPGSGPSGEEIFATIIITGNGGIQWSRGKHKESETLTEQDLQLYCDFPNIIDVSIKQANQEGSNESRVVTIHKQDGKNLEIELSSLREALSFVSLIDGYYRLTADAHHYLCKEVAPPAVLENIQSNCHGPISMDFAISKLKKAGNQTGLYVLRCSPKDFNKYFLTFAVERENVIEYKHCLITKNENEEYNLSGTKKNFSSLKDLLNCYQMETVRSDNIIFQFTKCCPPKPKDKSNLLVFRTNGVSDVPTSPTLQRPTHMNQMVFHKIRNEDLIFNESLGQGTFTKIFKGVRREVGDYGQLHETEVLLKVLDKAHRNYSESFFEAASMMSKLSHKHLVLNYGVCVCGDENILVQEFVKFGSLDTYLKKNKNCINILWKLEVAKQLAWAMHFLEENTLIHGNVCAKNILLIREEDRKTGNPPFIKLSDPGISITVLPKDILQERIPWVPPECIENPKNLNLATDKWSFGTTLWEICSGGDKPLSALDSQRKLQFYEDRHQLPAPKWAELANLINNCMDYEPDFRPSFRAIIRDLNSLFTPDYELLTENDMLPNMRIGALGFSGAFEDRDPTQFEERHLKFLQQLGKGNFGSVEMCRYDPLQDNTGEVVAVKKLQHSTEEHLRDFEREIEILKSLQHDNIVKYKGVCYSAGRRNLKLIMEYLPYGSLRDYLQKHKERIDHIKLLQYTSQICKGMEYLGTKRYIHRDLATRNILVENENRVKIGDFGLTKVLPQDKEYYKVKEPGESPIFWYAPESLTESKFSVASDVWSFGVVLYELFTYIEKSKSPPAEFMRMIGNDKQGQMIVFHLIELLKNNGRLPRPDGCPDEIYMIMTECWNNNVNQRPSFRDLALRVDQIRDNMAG

SMILES: NC(=O)c1cc(-c2cccc(C(F)(F)F)c2)nc2c1[nH]c1cc(N3CCNCC3)ccc12 [Example 316, 7-(Piperazin-1-yl)-2-(3-(trifluoromethyl)phenyl)-5H-pyrido[3,2-b]indole-4-carboxamide]
- IC50: 6 nM

Source: patent US8815840B2, “Carbazole and carboline kinase inhibitors” (Bristol-Myers Squibb Company, priority 2008, dated 2014)
